# System: SARS-CoV-2
# Test: Functional immunofluorescence assay to measure dose dependent changes in antiviral-drug inhibitory efficacy against hCoV-19/USA-WA1/2020 in HeLa-ACE2 cells which are seeded prior to drug treatment, then infected with hCoV-19/USA-WA1/2020. Cells are fixed with 10 % formaldehyde, washed with PBS, permeabilized with permeabilization buffer, then washed with wash buffer. The cells are incubated with nucleoprotein primary antibody IC7C7. Following primary staining, cells are washed with wash buffer and incubated in a solution of with Alexa fluor 488 and DAPI. Infected and uninfected cells are visualized and analyzed by Gen5 software. The assay has been performed by Icahn School of Medicine at Mount Sinai.
# Format: organism-based, Homo sapiens
# Conditions: for EC50: Severe acute respiratory syndrome coronavirus 2, HeLa-ACE2
Compound,EC50 [µM],also measured
CCNC(=O)c1cc2c(N[C@@H](c3ccc4c(c3)S(=O)(=O)CCO4)C(C)C)ncnc2[nH]1,> 20,"EC90 (Severe acute respiratory syndrome coronavirus 2, HeLa-ACE2, Baseline response 0 %, Hill slope -0.398, Maximum measured 111.753 %, Maximum response 100 %, Minimum measured 79.377 %, R squared 0.175): > 20 µM"
Cc1nn(C)cc1-c1cc2c(N[C@@H](c3ccc4c(c3)S(=O)(=O)CCC4)C(C)C)ncnc2[nH]1,> 20,"EC90 (Severe acute respiratory syndrome coronavirus 2, HeLa-ACE2, Maximum measured 131.643 %, Minimum measured 93.649 %): > 20 µM"
CCNC(=O)c1cc2c(N[C@@H](c3ccc4c(c3)S(=O)(=O)CCC4)C(C)C)ncnc2[nH]1,> 20,"EC90 (Severe acute respiratory syndrome coronavirus 2, HeLa-ACE2, Baseline response 0 %, Hill slope -4.495, Maximum measured 108.517 %, Maximum response 100 %, Minimum measured 90.612 %, R squared 0.096): > 20 µM"
CNC(=O)c1cccc(-c2cc3c(N[C@@H](c4ccc5c(c4)S(=O)(=O)CCC5)C(C)C)ncnc3[nH]2)c1,> 20,"EC90 (Severe acute respiratory syndrome coronavirus 2, HeLa-ACE2, Baseline response 0 %, Hill slope -1.505, Maximum measured 108.746 %, Maximum response 100 %, Minimum measured 56.34 %, R squared 0.642): > 20 µM"
CC(C)[C@@H](Nc1ncnc2[nH]c(-c3cnn(C)c3)cc12)c1ccc2c(c1)S(=O)(=O)NCC2,> 20,"EC90 (Severe acute respiratory syndrome coronavirus 2, HeLa-ACE2, Baseline response 0 %, Hill slope -6.715, Maximum measured 105.419 %, Maximum response 100 %, Minimum measured 69.993 %, R squared 0.42): > 20 µM"
CC(C)[C@H](Nc1ncnc2[nH]c(-c3cnn(C)c3C#N)cc12)c1ccc2c(c1)S(=O)(=O)CCC2,6.21,"EC90 (Severe acute respiratory syndrome coronavirus 2, HeLa-ACE2, Baseline response 0 %, Hill slope -14.93, Maximum measured 129.006 %, Maximum response 100 %, Minimum measured 5.734 %, R squared 0.877): 7.19 µM"
CC(C)(C)[C@H](Nc1ncnc2[nH]c(-c3cnn(CC(N)=O)c3)cc12)c1ccc2c(c1)OCCO2,> 20,"EC90 (Severe acute respiratory syndrome coronavirus 2, HeLa-ACE2, Baseline response 0 %, Hill slope -0.655, Maximum measured 108.484 %, Maximum response 100 %, Minimum measured 91.129 %, R squared 0.123): > 20 µM"
CNCc1cc(-c2cc3c(N[C@H](c4ccc5c(c4)S(=O)(=O)CCC5)C(C)C)ncnc3[nH]2)co1,11.1,"EC90 (Severe acute respiratory syndrome coronavirus 2, HeLa-ACE2, Baseline response 0 %, Hill slope -0.715, Maximum measured 94.818 %, Maximum response 100 %, Minimum measured 27.713 %, R squared 0.683): > 20 µM"
CC(C)[C@H](Nc1ncnc2[nH]c(-c3cnn(C)c3C#N)cc12)c1ccc2c(n1)NC(=O)CO2,0.858,"EC90 (Severe acute respiratory syndrome coronavirus 2, HeLa-ACE2, Baseline response 0 %, Hill slope -0.619, Maximum measured 70.604 %, Maximum response 100 %, Minimum measured 3.388 %, R squared 0.805): > 20 µM"
CC(C)[C@@H](Nc1ncnc2[nH]ccc12)c1ccc2c(c1)S(=O)(=O)CCO2,> 20,"EC90 (Severe acute respiratory syndrome coronavirus 2, HeLa-ACE2, Baseline response 0 %, Hill slope -0.245, Maximum measured 99.283 %, Maximum response 100 %, Minimum measured 83.757 %, R squared 0.186): > 20 µM"
COc1ccc([C@@H](Cc2nnn[nH]2)NC(=O)c2ncnc3[nH]ccc23)cc1,> 20,"EC90 (Severe acute respiratory syndrome coronavirus 2, HeLa-ACE2, Maximum measured 136.92 %, Minimum measured 93.837 %): > 20 µM"
CC(C)[C@H](Nc1ncnc2[nH]c(-c3cnn(C)c3C#N)cc12)c1ccc2c(c1)NC(=O)CO2,1.33,"EC90 (Severe acute respiratory syndrome coronavirus 2, HeLa-ACE2, Baseline response 0 %, Hill slope -0.558, Maximum measured 72.17 %, Maximum response 100 %, Minimum measured 6.652 %, R squared 0.72): > 20 µM"
CCNC(=O)c1cc2c(N[C@@H](c3ccc4c(c3)S(=O)(=O)NCC4)C(C)C)ncnc2[nH]1,> 20,"EC90 (Severe acute respiratory syndrome coronavirus 2, HeLa-ACE2, Maximum measured 101.15 %, Minimum measured 78.382 %): > 20 µM"
CC(C)[C@H](Nc1ncnc2[nH]c(-c3cnn(C)c3)cc12)c1ccc2c(c1)S(=O)(=O)CCC2,> 20,"EC90 (Severe acute respiratory syndrome coronavirus 2, HeLa-ACE2, Baseline response 0 %, Hill slope -1.829, Maximum measured 111.115 %, Maximum response 100 %, Minimum measured 52.798 %, R squared 0.593): > 20 µM"
